This test deals with MAPK14 (human) (UniProt Q16539). Briefly: Inhibition of MAPK14 Kinase Activity.
MAPK14 (human), sequence (Q16539 whole entry, looked up): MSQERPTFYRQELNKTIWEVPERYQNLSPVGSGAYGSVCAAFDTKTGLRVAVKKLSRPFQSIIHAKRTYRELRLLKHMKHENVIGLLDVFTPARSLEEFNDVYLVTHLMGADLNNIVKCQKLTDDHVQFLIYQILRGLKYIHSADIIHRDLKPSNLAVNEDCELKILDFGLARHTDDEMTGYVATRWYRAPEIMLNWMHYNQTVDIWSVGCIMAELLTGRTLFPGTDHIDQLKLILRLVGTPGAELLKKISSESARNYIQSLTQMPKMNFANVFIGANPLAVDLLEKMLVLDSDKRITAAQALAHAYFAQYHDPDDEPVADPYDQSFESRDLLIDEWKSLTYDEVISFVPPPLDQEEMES
On to `CN1CCC(C(=O)Nc2sc3c(ccc(=O)n3-c3ccccc3)c2C(=O)c2ccccc2)CC1`, for which the IC50 is less than 2000 nM. On to `Cc1cc(C(=O)c2c(N[C@H]3CCN(C)C3)sc3c2ccc(=O)n3-c2ccccc2)ccc1F`, for which the IC50 was less than 2000 nM. The result for `CC(=O)Nc1sc2c(ccc(=O)n2-c2ccccc2)c1C(=O)c1ccccc1C#N` reads less than 2000 nM; that for `CCOC(=O)c1sc2c(ccc(=O)n2-c2ccccc2)c1C(=O)c1ccccc1`, less than 2000 nM. `COc1ccccc1C(=O)c1c(N)sc2c1ccc(=O)n2-c1ccccc1` came in with an IC50 of less than 2000 nM. The molecule `N#Cc1sc2c(ccc(=O)n2-c2ccccc2)c1C(=O)c1ccccc1` yielded an IC50 of less than 2000 nM. The result for `Cc1cccc(C(=O)c2c(N)sc3c2ccc(=O)n3-c2ccccc2F)c1` reads less than 2000 nM; that for `NC(=O)CCNc1sc2c(ccc(=O)n2-c2ccccc2)c1C(=O)c1ccccc1`, less than 2000 nM. Turning to `NC(=O)c1sc2c(ccc(=O)n2-c2ccccc2)c1C(=O)c1cccc(Cl)c1`, the IC50 was less than 2000 nM. As for `Cc1cc(C(=O)c2c(NC(=O)N[C@@H]3CCN(C)C3)sc3c2ccc(=O)n3-c2ccccc2)ccc1F`, the IC50 is less than 2000 nM. Consider `Nc1sc2c(ccc(=O)n2-c2c(F)cccc2F)c1C(=O)c1ccccc1`, for which the IC50 is less than 2000 nM.

Turning to `Cc1ccc(-n2c(=O)ccc3c(C(=O)c4ccccc4)c(NC4CNC4)sc32)cc1`, the concentration for half-maximal inhibition (IC50) was less than 2000 nM. For `O=C(c1ccccc1)c1c(N2CC[C@@H](O)C2)sc2c1ccc(=O)n2-c1ccccc1`, the IC50 is less than 2000 nM. Next, `CCOC(=O)c1sc2c(ccc(=O)n2-c2ccccc2)c1C(=O)c1cccc(C)c1`: less than 2000 nM. The molecule `O=C(c1ccccc1)c1c(NC(=O)C2CCNCC2)sc2c1ccc(=O)n2-c1ccccc1` displayed a half-inhibitory concentration (IC50) of less than 2000 nM. The molecule `CC(=O)Nc1sc2c(ccc(=O)n2-c2ccccc2)c1C(=O)c1ccccc1C` returned an IC50 of less than 2000 nM.

Regarding `Cc1cccc(C(=O)c2c(N3CCC3)sc3c2ccc(=O)n3-c2ccccc2)c1`, the IC50 was less than 2000 nM. On to `Nc1sc2c(ccc(=O)n2-c2ccccc2)c1C(=O)c1cccc(Cl)c1`, for which the IC50 was less than 2000 nM. `Cc1cc(C(=O)c2c(N[C@@H]3CCN(C)C3)sc3c2ccc(=O)n3-c2ccccc2)ccc1F`: the IC50 is less than 2000 nM.

For the molecule `CN(C)[C@@H]1CCN(C(=O)Nc2sc3c(ccc(=O)n3-c3ccccc3)c2C(=O)c2ccccc2)C1`, the IC50 was less than 2000 nM.

Consider `O=C(c1cccc(C(F)(F)F)c1)c1c(NC(=O)C2CCNCC2)sc2c1ccc(=O)n2-c1ccccc1`, for which the IC50 was less than 2000 nM.

For `Cc1cc(C(=O)c2c(NC3CCN(C)CC3)sc3c2ccc(=O)n3-c2ccccc2)ccc1F`, the IC50 is less than 2000 nM. `CN(C)C(=O)c1sc2c(ccc(=O)n2-c2ccccc2)c1C(=O)c1ccccc1`: the IC50 is less than 2000 nM. Next, `O=C(c1ccccc1)c1c(NC2CNC2)sc2c1ccc(=O)n2-c1c(F)cccc1F`: less than 2000 nM; `Cc1cccc(C(=O)c2c(NC(=O)NCC(C)(C)O)sc3c2ccc(=O)n3-c2ccccc2)c1`: less than 2000 nM. `N#Cc1sc2c(ccc(=O)n2-c2ccccc2Cl)c1C(=O)c1ccccc1` registered an IC50 of less than 2000 nM. Turning to `Cc1ccc(C(=O)c2c(N)sc3c2ccc(=O)n3-c2ccccc2)cc1C`, the IC50 was less than 2000 nM. With `Nc1sc2c(ccc(=O)n2-c2ccccc2)c1C(=O)c1ccc(F)c(Cl)c1`, the IC50 was less than 2000 nM. Next, `C=CCNC(=O)Nc1sc2c(ccc(=O)n2-c2ccccc2)c1C(=O)c1cccc(C)c1`: less than 2000 nM.

`Cc1cccc(C(=O)c2c(N[C@H]3CCNC3)sc3c2ccc(=O)n3-c2ccccc2)c1` came in with an IC50 of less than 2000 nM. In the case of `Cc1cc(C(=O)c2c(NC(=O)C3CCN(C)CC3)sc3c2ccc(=O)n3-c2ccccc2F)ccc1F`, the concentration for half-maximal inhibition (IC50) is less than 2000 nM. The result for `Cc1cc(C(=O)c2c(NC3CN(C(C)C)C3)sc3c2ccc(=O)n3-c2ccccc2)ccc1F` reads less than 2000 nM; that for `O=C(c1ccccc1)c1c(NCCN2CCCCC2)sc2c1ccc(=O)n2-c1ccccc1`, less than 2000 nM; that for `Cc1cccc(C(=O)c2c(C(=O)N3CCC3)sc3c2ccc(=O)n3-c2ccccc2)c1`, less than 2000 nM.

`COc1cccc(C(=O)c2c(NC(C)=O)sc3c2ccc(=O)n3-c2ccccc2)c1` returned an IC50 of less than 2000 nM. Next, `CC(C)N1CCC(Nc2sc3c(ccc(=O)n3-c3ccccc3)c2C(=O)c2ccccc2)C1` (configuration not stated): less than 2000 nM; `Nc1sc2c(ccc(=O)n2-c2ccccc2)c1C(=O)c1nccs1`: less than 2000 nM; `O=C(c1ccccc1)c1c(C(=O)N2CCOCC2)sc2c1ccc(=O)n2-c1ccccc1`: less than 2000 nM. For the molecule `Nc1sc2c(ccc(=O)n2-c2ccccc2)c1C(=O)c1ccc(F)cc1F`, the IC50 is less than 2000 nM. As to `Nc1sc2c(ccc(=O)n2-c2ccccc2)c1C(=O)c1ccccn1`, the IC50 is less than 2000 nM. The result for `Cc1cc(C(=O)c2c(NC(=O)C3CCNCC3)sc3c2ccc(=O)n3-c2ccccc2F)ccc1F` reads less than 2000 nM; that for `CC(=O)Nc1sc2c(ccc(=O)n2CC2CC2)c1C(=O)c1ccc(F)c(C)c1`, less than 2000 nM.

As for `CC(C)N1CCC(Nc2sc3c(ccc(=O)n3-c3ccccc3)c2C(=O)c2ccccc2)CC1`, the IC50 was less than 2000 nM. The result for `Nc1sc2c(ccc(=O)n2-c2ccccc2)c1C(=O)c1ccccc1C(F)(F)F` reads less than 2000 nM; that for `CC(=O)Nc1sc2c(ccc(=O)n2-c2ccccc2)c1C(=O)c1ccc(C)cc1`, less than 2000 nM. `CC(=O)Nc1sc2c(ccc(=O)n2-c2ccccc2)c1C(=O)c1ccc(C)c(C)c1`: the IC50 was less than 2000 nM. `Nc1sc2c(ccc(=O)n2-c2ccccc2)c1C(=O)c1ccc(F)cc1` displayed an IC50 of less than 2000 nM. Next, `CC(=O)Nc1sc2c(ccc(=O)n2-c2ccccc2)c1C(=O)c1ccc(F)cc1`: less than 2000 nM; `CC(C)(O)CNC(=O)Nc1sc2c(ccc(=O)n2-c2ccccc2Cl)c1C(=O)c1ccccc1`: less than 2000 nM; `Nc1sc2c(ccc(=O)n2-c2ccccc2F)c1C(=O)c1ccccc1`: less than 2000 nM. The molecule `CN1CC(Nc2sc3c(ccc(=O)n3CC3CC3)c2C(=O)c2ccccc2)C1` showed an IC50 of less than 2000 nM.

The molecule `CC(=O)Nc1sc2c(ccc(=O)n2-c2ccccc2)c1C(=O)c1ccc(F)c(C)c1` gave an IC50 of less than 2000 nM.

`Cc1cc(C(=O)c2c(NC(=O)NCC(C)(C)O)sc3c2ccc(=O)n3CC2CC2)ccc1F` showed an IC50 of less than 2000 nM.

In turn, `Cc1cccc(C(=O)c2c(NC3CCN(C)CC3)sc3c2ccc(=O)n3-c2ccccc2)c1` showed an IC50 of less than 2000 nM.

The molecule `O=C(c1ccccc1)c1c(NCC2CNC2)sc2c1ccc(=O)n2-c1ccccc1` gave an IC50 of less than 2000 nM. `CC(=O)Nc1sc2c(ccc(=O)n2-c2ccccc2F)c1C(=O)c1ccccc1` had an IC50 of less than 2000 nM. The molecule `CN1CC[C@@H](NC(=O)Nc2sc3c(ccc(=O)n3-c3ccccc3)c2C(=O)c2ccccc2)C1` yielded an IC50 of less than 2000 nM. `CCN1CCC(C(=O)Nc2sc3c(ccc(=O)n3-c3ccccc3)c2C(=O)c2ccccc2)CC1` yielded an IC50 of less than 2000 nM.

In turn, `Cc1cc(C(=O)c2c([N+](=O)[O-])sc3c2ccc(=O)n3-c2ccccc2Cl)ccc1F` gave an IC50 of less than 2000 nM.

In turn, `Cc1cccc(C(=O)c2c(NC(=O)N3CCC[C@@H]3CO)sc3c2ccc(=O)n3-c2ccccc2)c1` registered an IC50 of less than 2000 nM. Regarding `N[C@H]1CC[C@H](Nc2sc3c(ccc(=O)n3-c3ccccc3)c2C(=O)c2ccccc2)CC1`, the IC50 is less than 2000 nM.

`Nc1sc2c(ccc(=O)n2-c2ccccc2)c1C(=O)c1ccccc1F` returned a half-maximal inhibitory concentration (IC50) of less than 2000 nM. Regarding `CN1CCN(C(=O)Nc2sc3c(ccc(=O)n3-c3ccccc3)c2C(=O)c2ccccc2)CC1`, the concentration for half-maximal inhibition (IC50) is less than 2000 nM. In turn, `CN1CCC[C@@H](Nc2sc3c(ccc(=O)n3-c3ccccc3)c2C(=O)c2ccccc2)C1` gave an IC50 of less than 2000 nM. On to `Cc1cc(C(=O)c2c(NC(=O)N[C@@H]3CCNC3)sc3c2ccc(=O)n3-c2ccccc2)ccc1F`, for which the half-maximal inhibitory concentration (IC50) was less than 2000 nM. The molecule `Nc1sc2c(ccc(=O)n2-c2ccccc2)c1C(=O)c1cccc(OC(F)(F)F)c1` had an IC50 of less than 2000 nM. Next, `Cc1cccc(C(=O)c2c(NC(=O)OC(C)(C)C)sc3c2ccc(=O)n3-c2ccccc2)c1`: less than 2000 nM. For `Cc1cc(C(=O)c2c(NC(=O)NC(C)(C)CO)sc3c2ccc(=O)n3CC2CC2)ccc1F`, the IC50 is less than 2000 nM. On to `O=C(c1ccccc1)c1c(NC2CCNCC2)sc2c1ccc(=O)n2-c1ccccc1`, for which the IC50 is less than 2000 nM. For `CN1CCC(Nc2sc3c(ccc(=O)n3-c3ccc(F)cc3)c2C(=O)c2ccccc2)CC1`, the IC50 is less than 2000 nM. With `CC(=O)Nc1sc2c(ccc(=O)n2-c2ccccc2)c1C(=O)c1cccc(OC(F)(F)F)c1`, the IC50 was less than 2000 nM. In the case of `Nc1sc2c(ccc(=O)n2-c2ccccc2)c1C(=O)c1cccc(C(F)(F)F)c1`, the IC50 was less than 2000 nM. Next, `Cc1cc(C(=O)c2c(N[C@@H]3CCNC3)sc3c2ccc(=O)n3-c2ccccc2)ccc1F`: less than 2000 nM; `CC(=O)Nc1sc2c(ccc(=O)n2-c2ccccc2)c1C(=O)c1cccc(F)c1`: less than 2000 nM; `Nc1sc2c(ccc(=O)n2-c2ccccc2)c1C(=O)c1cccc(Br)c1`: less than 2000 nM. Take `CN1CC[C@@H](Nc2sc3c(ccc(=O)n3-c3ccccc3)c2C(=O)c2ccccc2)C1`: the IC50 is less than 2000 nM. Next, `CC(C)(O)CNC(=O)Nc1sc2c(ccc(=O)n2-c2ccccc2)c1C(=O)c1ccccc1`: less than 2000 nM; `O=C(c1ccccc1)c1c(NC(=O)C2CCNCC2)sc2c1ccc(=O)n2CC1CC1`: less than 2000 nM; `O=C(c1ccccc1)c1c(NC2CNC2)sc2c1ccc(=O)n2CC1CC1`: less than 2000 nM. The result for `O=C(c1ccccc1)c1c(NC2CNC2)sc2c1ccc(=O)n2-c1ccccc1` reads less than 2000 nM; that for `Cc1cccc(C(=O)c2c(N)sc3c2ccc(=O)n3-c2ccccc2Cl)c1`, less than 2000 nM; that for `CC(=O)Nc1sc2c(ccc(=O)n2-c2ccccc2)c1C(=O)c1cccc(Br)c1`, less than 2000 nM. Consider `Cc1cc(C(=O)c2c(N)sc3c2ccc(=O)n3-c2ccccc2F)ccc1F`, for which the IC50 was less than 2000 nM. `Nc1sc2c(ccc(=O)n2-c2ccccc2)c1C(=O)c1ccc(OC(F)F)cc1` registered an IC50 of less than 2000 nM. As for `Cc1cccc(C(=O)c2c(N3CCCCC3)sc3c2ccc(=O)n3-c2ccccc2)c1`, the IC50 was less than 2000 nM. `NC(=O)c1sc2c(ccc(=O)n2-c2ccccc2)c1C(=O)c1ccc(F)cc1F` registered an IC50 of less than 2000 nM.

`O=C(c1ccccc1)c1c(NC(=O)C2CCNCC2)sc2c1ccc(=O)n2-c1ccccc1Cl`: the IC50 was less than 2000 nM.

(Values after the Kinase Knowledgebase extract (Sharma et al. 2016).)
